Structures are written as SMILES. Where “and” joins values, the source holds several entries; their conditions need not be identical. Equal entries are not always repeated.

The target in data set [1] is T1, TMEM16A (Homo sapiens, UniProt Q5XXA6).
T1 sequence (Q5XXA6 1-986): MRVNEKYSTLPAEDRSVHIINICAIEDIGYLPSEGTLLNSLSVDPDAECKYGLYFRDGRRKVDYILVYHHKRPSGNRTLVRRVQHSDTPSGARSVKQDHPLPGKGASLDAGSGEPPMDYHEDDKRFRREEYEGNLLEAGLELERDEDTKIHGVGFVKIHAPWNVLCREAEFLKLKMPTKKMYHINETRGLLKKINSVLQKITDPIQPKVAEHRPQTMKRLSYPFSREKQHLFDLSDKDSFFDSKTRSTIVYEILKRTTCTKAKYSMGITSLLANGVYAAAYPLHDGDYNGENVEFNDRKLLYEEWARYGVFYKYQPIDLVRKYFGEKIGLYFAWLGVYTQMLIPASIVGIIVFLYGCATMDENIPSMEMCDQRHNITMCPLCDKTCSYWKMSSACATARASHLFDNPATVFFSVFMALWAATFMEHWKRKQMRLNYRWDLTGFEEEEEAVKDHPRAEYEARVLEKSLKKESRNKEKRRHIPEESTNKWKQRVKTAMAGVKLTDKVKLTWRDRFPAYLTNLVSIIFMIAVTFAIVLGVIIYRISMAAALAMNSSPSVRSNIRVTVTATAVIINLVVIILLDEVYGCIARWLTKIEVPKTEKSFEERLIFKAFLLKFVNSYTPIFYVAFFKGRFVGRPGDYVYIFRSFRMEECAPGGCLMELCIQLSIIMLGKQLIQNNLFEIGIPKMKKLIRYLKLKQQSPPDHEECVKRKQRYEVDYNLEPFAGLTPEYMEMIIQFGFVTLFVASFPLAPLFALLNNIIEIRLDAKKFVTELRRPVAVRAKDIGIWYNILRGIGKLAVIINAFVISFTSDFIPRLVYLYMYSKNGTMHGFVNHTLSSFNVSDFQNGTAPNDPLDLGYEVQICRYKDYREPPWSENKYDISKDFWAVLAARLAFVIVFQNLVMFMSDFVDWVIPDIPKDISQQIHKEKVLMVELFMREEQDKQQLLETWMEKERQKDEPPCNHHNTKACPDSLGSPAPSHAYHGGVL
In words: TMEM16A functional fluorescence plate reader (FPR) assay, iodide influx in FRT cells with YFP. The format is cell-based. As to conditions: TMEM16A-expressing FRT cells, compound 10 min before iodide/ATP. As for the experimental part:
A high-throughput screening assay was previously developed to identify small molecule inhibitors of TMEM16A. […] The assay involved addition of test compounds to the cells for 10 min in a physiological chloride-containing solution, followed by addition of an iodide solution containing ATP. TMEM16A-facilitated iodide influx was determined from the initial time course of decreasing YFP fluorescence.
2-Acylamino-cycloalkylthiophene-3-carboxylic acid arylamides 6aa-6bw were initially evaluated for inhibition of TMEM16A anion channel function using a cell-based functional plate reader assay as reported.
Yields (%) are of the isolated or purified products. IC50 (μM) for inhibition of TMEM16A anion conductance using a fluorescence plate reader (FPR) assay.
Cell lines and culture. Fischer Rat Thyroid (FRT) cells stably co-expressing TMEM16A, TMEM16B and human wild-type CFTR and the halide-sensitive yellow fluorescent protein (YFP)-H148Q were cultured as described. […] For plate reader assays, cells were plated in black 96-well microplates (Corning-Costar Corp., New York, N.Y.) at a density of 20,000 cells per well and assayed 24-48 hours after plating.
(§1) TMEM16A functional assay. TMEM16A functional plate-reader assay was done as previously described. […] Test compounds (0.5 μl in DMSO) were added to each well at specified concentration. […] The initial rate of I− influx following each of the solution additions was computed from fluorescence data by nonlinear regression. TMEM16B activity was assayed similarly as described using FRT cells co-expressing YFP and TMEM16B.

Data set [2] has as its target T2, TMEM16B (Homo sapiens, UniProt Q9NQ90).
T2 construct: expressed in transfected cells; host or cells: Fischer Rat Thyroid (FRT) cells co-expressing YFP
T2 sequence (Q9NQ90 1-998): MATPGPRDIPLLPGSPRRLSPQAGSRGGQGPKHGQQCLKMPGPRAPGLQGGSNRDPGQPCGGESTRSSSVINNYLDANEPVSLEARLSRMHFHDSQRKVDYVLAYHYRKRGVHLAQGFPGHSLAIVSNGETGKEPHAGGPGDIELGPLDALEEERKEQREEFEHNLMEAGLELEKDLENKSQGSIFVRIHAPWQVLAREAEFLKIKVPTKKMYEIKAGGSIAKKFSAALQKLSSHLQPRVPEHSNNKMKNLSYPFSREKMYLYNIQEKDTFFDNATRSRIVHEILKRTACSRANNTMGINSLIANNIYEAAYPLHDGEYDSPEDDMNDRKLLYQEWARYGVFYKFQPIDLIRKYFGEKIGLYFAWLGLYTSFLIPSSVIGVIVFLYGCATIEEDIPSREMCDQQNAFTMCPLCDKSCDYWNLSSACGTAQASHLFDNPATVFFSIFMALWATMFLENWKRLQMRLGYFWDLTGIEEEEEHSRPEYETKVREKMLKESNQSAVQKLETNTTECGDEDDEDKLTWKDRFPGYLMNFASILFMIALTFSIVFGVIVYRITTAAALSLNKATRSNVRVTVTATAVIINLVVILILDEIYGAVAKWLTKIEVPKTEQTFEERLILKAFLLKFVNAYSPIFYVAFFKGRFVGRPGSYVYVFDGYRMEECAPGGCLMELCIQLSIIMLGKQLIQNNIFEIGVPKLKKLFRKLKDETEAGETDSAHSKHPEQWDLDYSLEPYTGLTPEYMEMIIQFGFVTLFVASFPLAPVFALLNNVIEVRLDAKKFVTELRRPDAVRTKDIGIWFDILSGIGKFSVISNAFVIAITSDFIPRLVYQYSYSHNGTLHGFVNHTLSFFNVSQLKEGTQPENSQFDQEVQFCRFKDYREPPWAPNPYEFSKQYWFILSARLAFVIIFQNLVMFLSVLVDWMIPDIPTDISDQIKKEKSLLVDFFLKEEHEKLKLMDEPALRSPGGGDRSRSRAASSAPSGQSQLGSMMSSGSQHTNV
As to the kind of experiment: TMEM16B fluorescence plate reader assay in FRT cells. Type of data set: cell-based. The procedure:
(§2) Concentration-dependent inhibition of TMEM16A measured by short-circuit current assay; TMEM16B and non-TMEM16 anion conductance measured using a fluorescence plate reader assay using FRT and HT-29 cells respectively; cell viability measured in FRT null cells.
(§3) We further assayed the compound potency on endogenous non-TMEM16A. Ca^2+-activated Cl^− channel in HT-29 cells.
as §1

The subject of data set [3] is FRT null cells. As to the kind of experiment: Cytotoxicity by Alamar Blue assay in FRT cells. The format is cell-based, rat. As to conditions: 8 h. As for the experimental part: as §2, §3
Cytotoxicity. FRT cells were cultured overnight in black 96-well Costar microplates and incubated with 5 μM test compounds for 8 h. Cytotoxicity was measured by Alamar Blue assay (Invitrogen, Carlsbad, Calif.) as per the manufacturer's instructions.
(In general: The colour change of resazurin is a common sign of viable cells or microbes.)

In data set [4] the test system is SW-480 cells. As to the kind of experiment: SW-480 cell proliferation, AlamarBlue after 72 h. The format is cell-based. As to conditions: for IC50: Homo sapiens, SW480, AlamarBlue after 72 h of drug treatment, read-out: IC50 inhibition of SW-480 cell proliferation. As for the experimental part: Compounds according to the present disclosure (structures shown in FIG. 5B) were tested for their inhibitory effect on proliferation of SW-480 cell line.
SW-480 cells were cultured on plastic in Leibovitz L15 medium supplemented with 10% fetal bovine serum, 2 mM L-glutamine, 100 units/mL penicillin, and 100 μg/mL streptomycin. The cells were incubated at 37° C. without CO2.
SW-480 cells were plated into black 96-well microplates (Corning-Costar Corp., New York, N.Y.) at 10% seeding. The cells were treated with test compounds dissolved in DMSO in serial dilution while maintaining the final concentration of DMSO at 0.5%. Plated cells were then incubated for 72 h at 37° C. Cell proliferation was quantified using the AlamarBlue assay (Invitrogen, Carlsbad, Calif.) as per the manufacturer's instructions. Data was normalized against untreated control cells that were lysed for 10 minutes using Triton-X100 (0.1% in PBS).

Data set [5] concerns the target T1, TMEM16A. As to the kind of experiment: Short-circuit current assay in TMEM16A-expressing FRT cells. Type of data set: cell-based.
Description: Measurements were done in FRT cells expressing TMEM16A.
as §2
Short-circuit current measurement. Short-circuit current measurements were done as described. (See Piechowicz, K. A. et al., J Enzyme Inhib Med Chem 2016, 1-7.) Briefly, Snapwell inserts (Corning Costar, Corning, N.Y.) containing TMEM16A-expressing FRT cells were mounted in Ussing chambers (Physiological instruments, San Diego, Calif.). The hemichambers were filled with 5 ml of HCO3^− buffered solution (basolateral) and half-Cl^− solution (apical), and the basolateral membrane was permeabilized with 250 μg/ml amphotericin B. Solutions were bubbled with 95% O2/5% CO2 and maintained at 37° C., and short-circuit current was measured on a DVC-1000 voltage clamp (World Precision Instruments Inc., Sarasota, Fla.) using Ag/AgCl electrodes and 3 M KCl agar bridges.

Data set [6] deals with SW-480 cells. As to conditions: several tumor cell lines including SW480, reported; cited from earlier work.
The nature of data set [7]: In vitro metabolic stability with rat liver microsomes and NADPH. The format is in vitro ADME. As to conditions: rat liver microsomes + NADPH, 180 min. The procedure: (3B) LC/MS traces showing total ion counts as a function of incubation time.
These compounds were incubated with rat liver microsomes and NADPH, and non-metabolized compounds were quantified by ESI-LCMS. […] It is speculated that Ani-9 could be oxidized at the aryl methyl or N—N bond; or hydrolyzed at the amide or hydrazone linkages.
Compounds (each 10 uM) were incubated for specific time points (2, 5, 15, 30, 60, 180 min) with shaking at 37° C. with rat liver microsomes (1 mg protein/mL, Sigma-Aldrich, St. Louis, Mo.) in potassium phosphate butler (100 mM) containing 1 mM NADPH. The mixture was then chilled on ice, and 0.5 mL of ice-cold ethyl acetate was added. Samples were centrifuged for 15 min at 3000 RPM. The supernatant was evaporated to dryness, and the residue was dissolved in 80 μL of mobile phase (acetonitrile:/water, 3:1, containing 0.1% formic acid) for LC/MS. Reverse-phase HPLC separation was carried out using a Waters C18 column (2.1 mm×100 mm, […]) equipped with a solvent delivery system (Waters model 2690, Milford, Mass.).
On the technique in general: Liver microsomes are vesicles of endoplasmic reticulum, rich in cytochrome P450 enzymes.

As for `Cc1ccc(NC(=O)c2c(NC(=O)C(F)(F)F)sc3c2CCCC3)cc1` [Compound 6aw, 2-(2,2,2-Trifluoro-acetylamino)-4,5,6,7-tetrahydro-benzo[b]thiophene-3-carboxylic acid p-tolylamide], the IC50 in data set [1] was 200 to 300 nM and 220 nM.

Take `Cc1ccccc1NC(=O)c1c(NC(=O)C(F)(F)Cl)sc2c1CCCCC2` [Compound 6bk, 2-(2-Chloro-2,2-difluoro-acetylamino)-5,6,7,8-tetrahydro-4H-cyclohepta[b]thiophene-3-carboxylic acid o-tolylamide]: the IC50 in data set [2] is 400 nM; in data set [4] it was 750 nM; in data set [1], 80 to 180 nM and 180 nM; in data set [5] it was 230 nM. In data set [3], the “Cellular survival % at 5 μM” value was determined as 98%.

Consider `Cc1ccccc1NC(=O)c1c(NC(=O)C(F)(F)I)sc2c1CCCCC2` [Compound 6bn, 2-(2,2-Difluoro-2-iodo-acetylamino)-5,6,7,8-tetrahydro-4H-cyclohepta[b]thiophene-3-carboxylic acid o-tolylamide], for which the IC50 came to 1400 nM in data set [2], 600 nM in data set [1] and 730 nM in data set [5]. The “Cellular survival % at 5 μM” value in data set [3] was 96%. On to `CC(C)(C)C1CCc2c(sc(NC(=O)c3ccco3)c2C(=O)O)C1` (stereo not drawn) [CaCCinh-A01, 6-t-butyl-2-(furan-2-carboxamido)-4,5,6,7-tetrahydrobenzo[b] thiophene-3-carboxylic acid], for which, in data set [6], the “Concentrations reported to inhibit proliferation of TMEM16A-expressing tumor cell lines” value was 10 to 20 µM. `O=C(Nc1ccccc1F)c1c(NC(=O)C(F)(F)F)sc2c1CCCCC2` [Compound 6aj, 2-(2,2,2-Trifluoro-acetylamino)-5,6,7,8-tetrahydro-4H-cyclohepta[b]thiophene-3-carboxylic acid (2-fluoro-phenyl)-amide] had an IC50 in data set [1] of 1300 nM. Turning to `O=C(Nc1ccccc1OC(F)(F)F)c1c(NC(=O)C(F)(F)I)sc2c1CCC2` [Compound 6bw, 2-(2,2-Difluoro-2-iodo-acetylamino)-5,6-dihydro-4H-cyclopenta[b]thiophene-3-carboxylic add (2-trifluoromethoxy-phenyl)-amide], in data set [1], the IC50 stood at 1880 nM. For `COc1ccccc1/C=N/NC(=O)COc1ccc(Cl)cc1C` [Ani-9, reference compound], in data set [7], the “Degradation (in words)” value is reported as “near complete degradation”. Consider `CCC(=O)Nc1sc2c(c1C(=O)Nc1ccccc1)CCCCC2` [Compound 6ah, 2-Propionylamino-5,6,7,8-tetrahydro-4H-cyclohepta[b]thiophene-3-carboxylic acid phenylamide], for which the IC50 in data set [1] turned out to be 1200 nM. For `O=C(Nc1ccccc1)c1c(NC(=O)C(F)(F)Cl)sc2c1CCCCC2` [Compound 6bo, 2-(2-Chloro-2,2-difluoro-acetylamino)-5,6,7,8-tetrahydro-4H-cyclohepta[b]thiophene-3-carboxylic acid phenylamide], the IC50 in data set [1] worked out at 925 nM. Regarding `COc1ccc(Cl)cc1NC(=O)c1c(NC(=O)C(F)(F)F)sc2c1CCCCC2` [am1_47, N-(5-chloro-2-methoxyphenyl)-2-(2,2,2-trifluoroacetamido)-5,6,7,8-tetrahydro-4H-cyclohepta[b]thiophene-3-carboxamide], in data set [4], the IC50 stood at 470 nM. Also, in data set [4] (SW480 cells), the “Potency in inhibiting proliferation of SW480 cells compared with CaCCinh-A01 (in words)” value is reported as “considerably more potent than CaCCinh-A01”.
